{"source": "patent US10400285B2", "about": "“DDX43 as a biomarker of resistance to MEK1/2 inhibitors” (Memorial Sloan-Kettering Cancer Center, priority 2013, dated 2019)", "test_system": "Res-Omm1.3 and Res-Mel270 cells", "test": "Cell viability assay (CCK8), MEKi-resistant cells", "format": "cell-based", "description": "Cells were plated in 96-well plates, and treated with the indicated concentrations of drugs. […] Cell viability is expressed as a percentage of untreated cells.\nTo explore mechanisms of drug resistance, MEKi-resistant GNAQ-mutant cell lines were generated by exposing the cells to increasing concentrations of selumetinib for at least four weeks and routinely grown in 1 μM selumetinib, without clonal selection. After continuous exposure, the cell lines Res-Omm1.3 and Res-Mel270 became resistant to selumetinib compared to their parental cells Omm1.3 and Mel270 (FIG. 2A, B).", "data": [{"compound": "Cn1cnc2c(F)c(Nc3ccc(Br)cc3Cl)c(C(=O)NOCCO)cc21", "note": "[selumetinib]", "values": [{"measurement": "IC50 of resistant cells relative to their sensitive counterparts", "setting": "Res-Omm1.3 and Res-Mel270 vs parental Omm1.3 and Mel270, cell viability", "value": 10, "unit": "fold"}]}, {"compound": "NC1(c2ccc(-c3nc4ccn5c(=O)[nH]nc5c4cc3-c3ccccc3)cc2)CCC1", "note": "[MK2206]", "values": [{"measurement": "sensitivity to AKTi when combined with MEKi", "setting": "MK2206 with selumetinib, FIG. 6", "value": "sustained"}, {"measurement": "cell viability with AKTi compared to the parental lines", "setting": "increasing concentrations of MK2206, FIG. 6", "value": "Decreased viability"}]}, {"compound": "O=C(NOC[C@H](O)CO)c1ccc(F)c(F)c1Nc1ccc(I)cc1F", "note": "[PD0325901]", "values": [{"measurement": "cell viability: resistance to MEK inhibitor compared to parental cells", "setting": "increasing doses, 4 days, FIG. 2A, B and FIG. 7", "value": "cross resistance"}]}]}
